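Growth conditions: 96-well plates. Treatment: test compound, 48 hours, 5 concentrations. Analysis: linear interpolation between bracketing concentrations; unreached endpoints set to highest concentration. Here, GI50 denotes the concentration required for 50% inhibition of growth. TGI is the concentration that stops growth completely.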 Where only a bound is given, the exact number is not on record here.

What all share (test): growth of human tumour cells (NCI), 48 h
For assay [1], the system named is HCC-2998 colon.
Assay [2] has as its system SNB-75 CNS.
Assay [3] has as its system SW-620 colon.
Assay [4] relates to UO-31 renal.
Assay [5] relates to ACHN renal.
Assay [6] concerns HOP-92 NSCLC.
Assay [7] relates to TK-10 renal.
Assay [8] concerns SK-MEL-2 melanoma.
In assay [9] the test system is EKVX NSCLC.
Assay [10] concerns MOLT-4 leukemia.

`COc1cc2c(c(O)c1C)C(=O)C(Cl)=CC2=O`: the TGI in assay [1] is 44.8 µM; in assay [2], 31.5 µM; in assay [3], 8.29 µM; in assay [4], 21.6 µM; in [5] it was 13.9 µM; in assay [6], 11.5 µM. The TGI in assay [7] was determined as 15.3 µM; in assay [8], 31.2 µM; in [9] it was 23.3 µM; in [10], 8.66 µM.

Take `CCCCn1/c(=N/C(=S)N(C)C)ss/c1=N\C(=S)N(C)C`: the TGI in [1], in assay [2], in [3], in [4], in [5] and in assay [6] was more than 100 µM in each case. The TGI in [7], in assay [8], in [9] and in [10] was more than 100 µM in each case.

Consider `CN1CN(c2ccccc2)C2(CCN(CCCC3(c4cccs4)OCCO3)CC2)C1=O`, for which the TGI in [1], in assay [2], in assay [3], in [4], in assay [5] and in assay [6] was more than 100 µM throughout. For the same compound, the TGI in assay [7], in assay [8], in assay [9] and in [10] was more than 100 µM each time.

As for `CCOC(=O)C(=O)N1C(C)=C(C(=O)OCC)CC(C(=O)OCC)=C1C`, the TGI in assay [1], in assay [2], in assay [3], in assay [4], in [5] and in assay [6] was more than 100 µM each time. The TGI in assay [7], in assay [8], in assay [9] and in assay [10] was more than 100 µM throughout.

Take `N#Cc1c(O)c2c(c(O)c1C#N)C(=O)c1ccccc1C2=O`: the GI50 in assay [1] was 2.51 µM; in [2] it was 1.37 µM; in [3] it was 2.5 µM; in [4] it was 2.3 µM; in assay [5], 2.72 µM; in assay [6], 2.2 µM. Also, the GI50 is 4.2 µM in [7], 2.66 µM in assay [8], 3.07 µM in [9] and 2.07 µM in [10]. Moreover, the TGI in assay [1] is 8.59 µM; in [2], 3.94 µM; in [3], 7.55 µM; in assay [4], 9.81 µM; in assay [5], 9.96 µM; in assay [6], 5.92 µM. Besides, the TGI was 13.8 µM in assay [7], 7.73 µM in [8], 26.1 µM in assay [9] and 5.07 µM in assay [10].

For `CC(=O)/C(=C/n1c(=S)sc2ccccc21)C(=O)Nc1ccccc1C`, the TGI in assay [1], in assay [2], in [3], in assay [4], in [5] and in assay [6] was more than 100 µM throughout. Besides, the TGI in assay [7], in assay [8], in assay [9] and in assay [10] was more than 100 µM each time.

On to `O=C1c2ccccc2-c2c1c1cc3c(cc1c(=O)n2CCCCl)OCO3`, for which the GI50 in [1] is 24.4 µM; in assay [2] it was 0.58 µM; in assay [3], 94.5 µM; in [4] it was more than 100 µM; in assay [5] it was 24.5 µM; in assay [6], 41.1 µM. Besides, the GI50 in [7] was 30.9 µM; in assay [8], more than 100 µM; in assay [9] it was more than 100 µM; in assay [10], 35 µM. The TGI in [1] is more than 100 µM; in [2], more than 100 µM; in assay [3], more than 100 µM; in assay [4], more than 100 µM; in assay [5], 98.7 µM; in assay [6], more than 100 µM. In addition, the TGI is 75.2 µM in assay [7], more than 100 µM in [8], more than 100 µM in assay [9] and more than 100 µM in [10].

With `Cc1cccc(C(C)(C)C)c1NC(=O)C(=O)Cc1nc2ccccc2s1`, the TGI in [1], in assay [2], in assay [3], in assay [4], in assay [5] and in assay [6] was more than 100 µM throughout. The TGI in [7], in assay [8], in assay [9] and in [10] was more than 100 µM each time.

On to `Cn1c(-c2nonc2N)nc2cnccc21`, for which the GI50 is more than 25 µM in [1]; more than 12.8 µM in assay [2]; more than 25 µM in [3]; more than 17.8 µM in assay [4]; more than 25 µM in assay [5]; 8.73 µM in assay [6]. For the same compound, the GI50 in assay [7] is 11.3 µM; in assay [8] it was more than 25 µM; in [9], 16.5 µM; in assay [10], more than 25 µM. The TGI in assay [1] is more than 25 µM; in assay [2], more than 24 µM; in assay [3] it was more than 25 µM; in assay [4], more than 25 µM; in assay [5], more than 25 µM; in [6] it was more than 25 µM. Moreover, the TGI in assay [7], in assay [8], in [9] and in assay [10] was more than 25 µM in each case.

Take `CN(C)CCNC(=O)c1cccc2nc3c(Cl)cccc3nc12`: the TGI is 43.1 µM in assay [1]; 32.2 µM in [2]; more than 40.4 µM in assay [3]; more than 40.5 µM in assay [4]; 30.5 µM in assay [5]; more than 24.2 µM in assay [6]. Also, the TGI in assay [7] was more than 54.8 µM; in [8], 18.6 µM; in [9] it was 32.9 µM; in assay [10] it was 10.4 µM.

With `OCc1c(-c2cccc3ccccc23)sc(-c2cccc3ccccc23)c1CO`, the TGI in [1] was found to be 33.9 µM; in assay [2] it was 30.7 µM; in [3] it was 29.2 µM; in assay [4] it was 23.7 µM; in [5], 25.1 µM; in [6], 30.7 µM. Also, the TGI in assay [7] is 26.9 µM; in assay [8], 28.2 µM; in assay [9], 25 µM; in assay [10], 42.2 µM.

For the origin of these results see PubChem BioAssay (NCI).
